In paper PMC7116804 (Green chemistry : an international journal and green …, 2019):

Target: Aa-ADH (Aromatoleum aromaticum, UniProt Q5P5I4)
Assay: oxidation of diol […] isomer mixture, product analysis
Assay type: biochemical
Details: NAD+ 1 mM recycled by NOX; Tris-HCl pH 7.5, 30 °C, 24 h

Aa-ADH, sequence (Q5P5I4 2-249): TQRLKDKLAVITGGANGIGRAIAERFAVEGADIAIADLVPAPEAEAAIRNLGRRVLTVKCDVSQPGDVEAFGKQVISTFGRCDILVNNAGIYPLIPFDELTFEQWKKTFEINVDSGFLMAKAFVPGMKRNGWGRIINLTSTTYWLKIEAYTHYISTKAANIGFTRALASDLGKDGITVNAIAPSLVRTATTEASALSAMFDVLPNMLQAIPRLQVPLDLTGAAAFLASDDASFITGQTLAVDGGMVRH

Row | Compound | oxidation of diol 3 isomer mixture, product analysis
1 | C[C@@H](O)[C@H](O)c1ccccc1 [1R,2R-3] | Aa-ADH oxidized 1R,2R-3, 1S,2S-3 and 1R,2S-3
2 | C[C@H](O)[C@@H](O)c1ccccc1 [1S,2S-3] | Aa-ADH oxidized 1R,2R-3, 1S,2S-3 and 1R,2S-3
